US20230414632A1, “INHIBITION OF THE HIV-1 REPLICATION BY COMPOUNDS DIRECTED AGAINST A NEW TARGET OF THE VIRAL CYCLE” (priority 2020, published 2023)

Experiments:
[1] = tested on: MT4 cells; assay: Cell survival / cellular toxicity in infected MT4 cells (flow cytometry); format: cell-based; settings: up to 10 μM compound, day 5, MT4 cells
Experimental: For HIV-1 gfp+ vectors, viral replication is followed by GFP expression [i.e. the percentage and geometric mean fluorescence intensity (MFI) of GFP^+ cells]. Infectivity was estimated by flow cytometry using a FACSCalibur™ cytofluorometer (BD Biosciences). Toxicity is also assessed by flow cytometry (side and forward scatter).
At J0 (day zero) MT4 cells was used for infection with HIV gfp+ virus at multiplicity of infection (m.o.i.) reaching 0.1-0.2 (50 ng of p24^gag antigen per 10^6 cells). Two days post-infection (J2), MT4 cells are washed extensively (3 times with PBS) and resuspended using fresh RPMI medium (2×10^5 cells per ml) and plated into 6 well plates (2 ml per well) in the presence of compounds of formula I or II at various molecules concentrations. A control not infected with the virus (MT4 Ninf), or brought into contact with DMSO (inf DMSO, the solvent of compounds of formula I or II), or with dolutegravir (DTG) at 100 nM, a known inhibitor of the integrase, are conducted in parallel. At time J5 (day five), cells are then collected for cytometry analysis to quantify the production of viral particles and cell survival.

[2] = biological target: interaction between the HIV-1 integrase (IN) and the catalytic domain of the human mitochondrial lysyl-tRNA synthetase (mLysRS) (Homo sapiens (Human), UniProt P12497+Q15046); assay: HTRF assay of the mLysRS:IN interaction; format: binding, HIV-1 / human; settings: compound from 17 to 666 μM
Chain of interaction between the HIV-1 integrase (IN) and the catalytic domain of the human mitochondrial lysyl-tRNA synthetase (mLysRS) (Q15046 whole entry, looked up, other chains not shown, the tested form may be a part): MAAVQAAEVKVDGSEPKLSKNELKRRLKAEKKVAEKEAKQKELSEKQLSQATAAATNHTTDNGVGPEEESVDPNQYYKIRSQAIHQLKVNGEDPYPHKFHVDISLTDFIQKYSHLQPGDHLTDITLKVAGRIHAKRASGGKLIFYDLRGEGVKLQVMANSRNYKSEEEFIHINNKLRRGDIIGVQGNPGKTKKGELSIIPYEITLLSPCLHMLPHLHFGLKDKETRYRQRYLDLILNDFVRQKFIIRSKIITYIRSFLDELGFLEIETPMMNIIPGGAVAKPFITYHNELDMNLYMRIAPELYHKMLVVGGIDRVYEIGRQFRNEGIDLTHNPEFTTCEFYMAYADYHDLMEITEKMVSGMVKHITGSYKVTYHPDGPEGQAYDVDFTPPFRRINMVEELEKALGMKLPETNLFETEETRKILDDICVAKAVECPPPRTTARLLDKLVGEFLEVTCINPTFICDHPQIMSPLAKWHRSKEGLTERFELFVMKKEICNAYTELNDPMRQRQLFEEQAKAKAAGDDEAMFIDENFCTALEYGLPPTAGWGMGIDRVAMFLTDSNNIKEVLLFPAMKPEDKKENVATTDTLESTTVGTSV
Experimental: Experiments were performed on the interaction between the HIV-1 integrase (IN) and the catalytic domain of the human mitochondrial lysyl-tRNA synthetase (mLysRS), which constitutes the main contribution to the Gag Pol:mLysRS interaction.
Homogeneous time-resolved fluorescence (HTRF) assays were performed in black, half-area, flat bottom, 96-well microplates (Costar #3694). Human mitochondrial LysRS with a C-terminal HA-tag (mLysRS-HA), diluted in HTRF buffer (10 mM Tris-HCl pH 7.5, 50 mM NaCl, 10 mM 2-mercaptoethanol, BSA at 1 mg/ml) was added (20 μl at a dimer concentration of 3.75 nM) in the wells of microplates placed on ice. Compounds of formula I or II (1 μl of a 10 mM solution in DMSO) were then added to the wells, and mixing was achieved by pipetting up and down 3-times 10 μl. […]
A 10 μl solution of KF prepared in HTRF buffer at a concentration of 250 mM was then added and mixing was achieved by pipetting up and down 3-times 20 μl. After centrifugation at 900 g for 3 min at 4° C., fluorescence of Eu^3+ cryptate and of XL665 was recorded at 620 nm (I620) and 665 nm (I665), respectively, after excitation of Eu^3+ cryptate at 317 nm, in an Infinite M1000 PRO microplate reader (TECAN). Results are expressed as the ratio of I665/I620. The HTRF signal corresponds to the ratio of fluorescence at 665 and 620 nm (I665/I620). […]

[3] = tested on: HIV-1 gfp+ virus in MT4 cells; assay: Ex-vivo inhibition of HIV-1 replication (multi-cycle, HIV-1 gfp+ in MT4 cells, flow cytometry); format: cell-based; settings: 10 μM compound, day 5, MT4 cells infected with HIV gfp+
Experimental: Ability of compounds of formula I or II to inhibit the HIV-1 replicative cycle ex vivo was conducted by methods commonly used in antiretroviral pharmacology.
MT4 cell line (Charneau et al. J. Virol. 1992, 66:2814) were maintained in RPMI 1640. HEK293T were maintained in Dulbecco's Modified Eagle Medium (DMEM). All media were supplemented with Glutamax and with 10% heat-inactivated fetal calf serum (Hyclone) and 1% penicillin/streptomycin (100 units/mL) (Gibco). All media were purchased from Gibco (Life Technologies Co.). All cell lines used here were incubated at 37° C., under 5% CO2 atmosphere. […]
For HIV-1 gfp+ vectors, viral replication is followed by GFP expression [i.e. the percentage and geometric mean fluorescence intensity (MFI) of GFP^+ cells]. […] Toxicity is also assessed by flow cytometry (side and forward scatter).
At J0 (day zero) MT4 cells was used for infection with HIV gfp+ virus at multiplicity of infection (m.o.i.) reaching 0.1-0.2 (50 ng of p24^gag antigen per 10^6 cells). […] At time J5 (day five), cells are then collected for cytometry analysis to quantify the production of viral particles and cell survival.

Compound	cellular toxicity [1]	IC50 [2] [µM]	production of viral particles [3]
CCOC(=O)C1=C(C)NC(C)=C(C(=O)OCC)C1c1ccccc1/C=C/C(=O)OC(C)(C)C [I-a]	no cellular toxicity has been observed	–	–
COCCOC(=O)C1=C(C)NC(C)=C(C(=O)OC/C=C/c2ccccc2)C1c1cccc([N+](=O)[O-])c1 (stereo not drawn) [I-b]	no cellular toxicity has been observed	–	–
CC1=C(C(=O)OC(C)C)C(c2cccc([N+](=O)[O-])c2)C(C(=O)OC2CN(C(c3ccccc3)c3ccccc3)C2)=C(N)N1 (stereo not drawn) [I-d]	–	400 ± 150	–
CN1CCCC(n2nc(Cc3ccc(Cl)cc3)c3ccccc3c2=O)CC1 (stereo not drawn) [II-a]	no cellular toxicity has been observed	300 ± 50	greatly reduced
